Measurements from PubChem BioAssay AID179 (DTP/NCI, 2004).
Where “and” joins values, the source holds several entries; their conditions need not be identical. Identical values can stand only once. Calls of active or inactive are those of the source.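 Rule for the calls: active = compounds giving half or more protection of infected cells from virus-caused growth loss, again on retest; inactive = the rest.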

System: CEM cells HIV-1 protection, formazan growth assay
Assay: NCI AIDS Antiviral Assay
Settings: for IC50: measured here: growth of uninfected CEM cells
Procedure, shortened: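 Human CEM cells, uninfected and HIV-1-infected, exposed to five drug concentrations; growth measured by soluble formazan assay and scored as percent protection from infection, with protecting compounds retested.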

Row | SMILES | EC50 [µM] | IC50 | outcome
1 | CNS(=O)(=O)c1ccccc1C(C)(O)c1ccccc1 (centres undefined) | > 200 | > 200 µM | –
2 | CN1CN(c2ccccc2)C2(CCN(CCC3COc4ccccc4O3)CC2)C1=O (centres undefined) | > 200 | 30.9 µM | –
3 | N#CC1=C(N)N(c2ccccc2)C(=S)N2CCCCCCCC12 (centres undefined) | > 200 | 186 µM | –
4 | N=C(OC1CCCCC1)N1CCCC1 | > 200 | > 200 µM | –
5 | CCN(CC)CC(C)(C)C(=O)/C=C/c1ccc(/C=C/C(=O)C(C)(C)CN(CC)CC)cc1 | – | – | inactive
6 | CN1CCCC2(CCCc3ccccc32)C1 (centres undefined) | > 1000 | 257 µM | –
7 | CC[N+](C)(CC)CCC[N+]12CCC(CC1)CC2 | > 631 | > 631 µM | –
8 | Cc1ccc2oc(=O)c(C#N)c(/C=C/c3cccc4ccccc34)c2c1 | > 200 | > 200 µM | –
9 | C=CC(=O)N1C/C(=C\c2ccccc2)C(=O)/C(=C/c2ccccc2)C1 | > 15.8 | 0.933 µM | –
10 | CCCCC[C@@H]1CCCC2C1CC[C@@H](CCCCCI)N2C(=O)OCC(Cl)(Cl)Cl (some centres undefined) | – | – | inactive
11 | COc1cc2c(cc1OC)NCC1COc3c(ccc(OC)c3OC)C1=N2 (centres undefined) | > 200 | 117 µM | –
12 | CC(C)NCCCCCNc1cccc2cccnc12 | > 200 | 28.8 µM | –
13 | OCC1C(O)C(O)[C@@H]2SCCN12 (some centres undefined) | > 200 | > 200 µM | –
14 | Cc1cc(C(=O)CSC(=S)SC(C)(C)C)ccc1Cl | > 30.2 | > 30.2 µM | –
15 | COc1ccccc1NC(=O)CC(=O)n1nc(C)c(N=Nc2ccccc2C(=O)O)c1C | > 302 | 245 µM | –
16 | Cn1c(=O)[nH]c2nccnc2c1=O | > 200 | > 200 µM | –
17 | CC1(C)[C@H](CO)C(CO)[C@@H]1n1cnc2c(N)ncnc21 (some centres undefined) | > 912 | > 912 µM | –
18 | CCOc1ccc(NCC(=O)N2CC(=O)Nc3ccccc32)cc1 | > 22.4 | > 22.4 µM | –

Row | SMILES | EC50 [µM] | IC50 | outcome
19 | O=C(O)CCCCCCCCCCCI | 27.5 | 110 µM | –
20 | CC1(C)CCC2=C(O1)c1ccccc1C(=O)C2=O | > 200 | 0.912 µM and 1.07 µM | –
21 | C=CCCON(C(=O)OC(C)(C)C)c1ccccc1 | > 200 | 57.5 µM | –
22 | CNS(=O)(=O)NN(C)S(=O)(=O)c1ccc(OC)cc1 | > 407 | 105 µM | –
23 | C#CCC(N)(CO)C(=O)O (centres undefined) | – | – | inactive
24 | COC(=O)C1=C2Nc3ccccc3C[C@@]23CCN2CCC[C@@](C(C)OC(=O)C=C(C)C)(C1)C23 (some centres undefined) | > 200 | 23.4 µM | –
25 | CC1=CCP(C(F)(F)F)P(C(F)(F)F)C1 (centres undefined) | > 251 | > 251 µM | –
26 | Oc1cc2c3c(c1)CCCN3CCC2 | > 200 | 195 µM | –
27 | COC(=O)CCCC=C(c1cc(C)c(OC)c(Br)c1)c1cc(C)c(OC)c(Br)c1 | > 200 | 39.8 µM | –
28 | COc1cc2ccc(C(=O)NCCCNC(=O)c3ccc4cc(OC)c(OC)cc4c3)cc2cc1OC | 126 | > 200 µM | –
29 | CCCCCC(=O)OCCOCCOCCOCCOCCOCc1ccccc1 | – | – | inactive
30 | O=C1C(c2ccccc2)=[N+]([O-])c2cc([N+](=O)[O-])ccc21 | – | – | inactive
31 | O=C1CCCCCCCCCCC1CCCCCBr (centres undefined) | > 200 | 57.5 µM | –
32 | CN(C)c1ccc(C(=CC=C2C(=O)c3ccccc3C2=O)c2ccc(N(C)C)cc2)cc1 | > 11.2 | > 11.2 µM | –
33 | O=C1C(=O)N(c2ccc(Cl)cc2)C(=O)C(=O)C1c1nc2ccccc2o1 | – | – | inactive
34 | CCOC(=O)C1SC(=Nc2cccc(Cl)c2C)N=C1C (centres undefined) | 6.03 | 60.3 µM | –
35 | O=C(O)Cc1ccccc1 | > 200 | > 200 µM | –
